pIC50: −log10 of the molar value. Like-named read-outs stand apart in the source and are kept apart here.
How the values were obtained:
[1] = system: disturbances of the cardiac rhythm; test: Anti-arrhythmic action in the rat (aconitine perfusion); format: in vivo, male rats
Method: Male rats weighing 300-350 g were anesthetized intra-peritoneally with 1.20 g/kg of urethane, then tracheotomized and submitted to artificial respiration (40-50 breaths of 3 ml/minute). Needles were implanted subcutaneously so as to record the electro-cardiogram of the rats on the DII derivation signal. The products under test were administered intravenously or orally.
Five minutes after the administration of the product intravenously or 1 hour after administration orally, the jugular vein of the rats was perfused with 10 μg/minute from 0.2 ml of a solution of aconitine, and the time of appearance of disturbances of the cardiac rhythm was noted, (10 μg of aconitine corresponding to a perfusion of 0.2 ml of solution). The results are expressed as a percentage of the extension of the time of appearance of the disturbances of the cardiac rhythm as compared with controls, and as a function of the dose of the product under test.

[2] = biological target: T1, beta1-adrenergic receptors (Rattus norvegicus, UniProt P18090); test: Affinity for beta1-adrenergic receptors ([3H]dihydroalprenolol binding, brain cortex); conditions: relative to propanolol, [3H]dihydroalprenolol 10^-9 M
T1 construct: 10 cortexes removed from the brains of male rats weighing 150 g on average were homogenized; from tissue; host or cells: rat brain cortex, crude membrane fraction
Method: (§1) The technique is modelled on that of Mohler et al [Science., Vol. 198, p. 849-851 (1977)]. 10 cortexes removed from the brains of male rats weighing 150 g on average were homogenized in 90 ml of 0.32M sucrose and after centrifugation of the homogenized mixture at 1,000 g for 20 minutes at 0° C., the supernatant was centrifuged at 30,000 g for 15 minutes at 0° to +4° C. The pellet was suspended in 120 ml of 50 mM Tris-HCl buffer pH 7.7, and centrifuged at 30,000 g for 15 minutes at 0° to +4° C. The new pellet was suspended in 480 ml of 50 mM Krebs Tris-HCl buffer pH 7.7. 2 ml of the suspension were then incubated for 10 minutes at 37° C. in the presence of [^3 H] dihydroalprenolol at a concentration of 10^-9 M, i) alone, ii) with increasing concentrations of the test product or iii) to determine the non-specific binding, with non-radioactive propanolol at a concentration of 10^-5 M. The incubated suspensions were filtered on Whatman GF/C, and the filters were washed three times with 5 ml of Krebs Tris-HCl buffer pH 7.7 at 0° C.
The radioactivity of the filters was measured by liquid scintillation. The affinity of the test product for beta1 -adrenergic receptors is given relative to propanolol as the reference product.
(§2) CD=concentration of propanolol inhibiting 50% of the specific binding of [^3 H]dihydroalprenolol.
CX=concentration of the test product inhibiting 50% of the specific binding of […].
The relative affinity is given by the relation [formula]

[3] = biological target: T2, beta2-adrenergic receptors (Rattus norvegicus, UniProt P10608); test: Affinity for beta2-adrenergic receptors ([3H]dihydroalprenolol binding, cerebella); conditions: relative to propanolol, [3H]dihydroalprenolol 10^-9 M
T2 construct: The cerebella removed from the brains of male rats weighing 150 g on average were homogenized; from tissue; host or cells: rat cerebellum, crude membrane fraction
Method: as §1, with “The technique was modelled on” for “The technique is modelled on”, “et al [Science, Vol. 198,” for “et al [Science., Vol. 198,”, “849-851 (1977)]. The cerebella removed from” for “849-851 (1977)]. 10 cortexes removed from”, “ml of suspension were” for “ml of the suspension were”, “of [^3 H]dihydroalprenolol at a” for “of [^3 H] dihydroalprenolol at a”, “binding, with non-radio active propranolol at a” for “binding, with non-radioactive propanolol at a”
The radioactivity of the filters was measured by liquid scintillation. The affinity of the test product for beta2 -adrenergic receptors was given relative to propanolol as the reference product.
as §2
CX=concentration of the test product inhibiting 50% of the specific binding of [^3 H]dihydroalprenolol.
The relative affinity is given by the relation ARL=100 CD/CX

arterial blood pressure = test: Hypotensive activity on anaesthetized normotensive rats; format: in vivo, Sprague-Dawley male rats; conditions: 10 mg/kg, jugular vein injection
Method: Sprague-Dawley male rats (CR) were anaesthetized intraperitoneally with pentabarbital sodium (60 mg/kg) and a jugular vein was catheterized for the injection of the product, and a cartoid artery was catheterized for recording the arterial blood pressure. The test product was dissolved in 10% ethanol and then injected in a volume of 1 ml/kg.

Rat caudal arteries = test: Test of calcium-antagonistic activity in vitro (K+ depolarized caudal arteries); format: cell-based; conditions: 100 mM K+, 37° C., read-out: IC50, inhibition of the contraction due to K+ ions
Method: Calcium chloride was added in a volume of 250 μl to obtain a series of increasing concentrations of Ca^2+ ions ranging from 0.1 to 3.0 mM. The contractions of the arteries were recorded and a control series were thus established. The operation was repeated with the series of CA^2+ ions every 15 minutes and the preparation was washed four times after each series. When a stable response was obtained, the operation with the series of CA^2+ ions was performed in the presence of different concentrations of the test product, until a stable response was obtained.
The contractions of the arteries depend on the entry of Ca^2+ ions into the cells of the smooth muscles, and were caused by the depolarization of the smooth muscle by the K^+ ions and by the action of the noradrenaline released at presynaptic level. By starting the operation again with arteries denervated by the action of 6-OH-dopamine, the specific action due to noradrenaline was eliminated.

mice = test: Study of the acute toxicity; format: in vivo; conditions: oral
Method: The lethal doses LD50 of the different compounds tested were evaluated after administration orally to mice. The maximum dose not causing any mortality in 8 days was called the LD0 and the following results were obtained.

[4] = read-out: Percentage of prolongation in the time
[5] = iv, read-out: Percentage extension of the time of appearance of disturbances of the cardiac rhythm

T1 sequence (P18090 whole entry): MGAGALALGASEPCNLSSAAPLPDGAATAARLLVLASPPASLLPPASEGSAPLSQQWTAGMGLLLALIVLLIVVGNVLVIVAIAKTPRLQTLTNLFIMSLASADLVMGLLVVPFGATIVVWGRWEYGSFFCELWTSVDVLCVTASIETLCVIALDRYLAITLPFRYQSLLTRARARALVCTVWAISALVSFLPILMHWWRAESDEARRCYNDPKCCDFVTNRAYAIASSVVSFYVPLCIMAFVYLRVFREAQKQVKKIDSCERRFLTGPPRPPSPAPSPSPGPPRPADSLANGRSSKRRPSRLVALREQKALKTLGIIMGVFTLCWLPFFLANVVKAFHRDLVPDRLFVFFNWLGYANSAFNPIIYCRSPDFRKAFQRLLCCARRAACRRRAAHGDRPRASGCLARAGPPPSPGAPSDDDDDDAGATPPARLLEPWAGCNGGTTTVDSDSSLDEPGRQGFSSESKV
T2 sequence (P10608 whole entry): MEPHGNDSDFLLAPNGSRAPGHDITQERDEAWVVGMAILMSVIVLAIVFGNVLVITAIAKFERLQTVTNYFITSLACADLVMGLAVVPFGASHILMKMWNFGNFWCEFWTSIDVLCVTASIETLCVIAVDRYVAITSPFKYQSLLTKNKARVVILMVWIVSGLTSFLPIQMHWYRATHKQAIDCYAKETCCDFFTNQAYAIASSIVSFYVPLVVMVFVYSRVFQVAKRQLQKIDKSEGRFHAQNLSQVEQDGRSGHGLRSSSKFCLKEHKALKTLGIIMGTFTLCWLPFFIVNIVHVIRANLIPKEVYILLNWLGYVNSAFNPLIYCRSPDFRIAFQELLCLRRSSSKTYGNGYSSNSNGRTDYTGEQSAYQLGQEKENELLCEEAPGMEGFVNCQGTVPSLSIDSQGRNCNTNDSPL

Structure (SMILES)	change in vivo at 2.5 mg/kg [1, 4]	change in vivo at 5 mg/kg [1, 4]	ARL (relative affinity for beta1-adrenergic receptors) [2]	ARL (relative affinity for beta2-adrenergic receptors, 100 CD/CX) [3]	variation of the arterial blood pressure, 5 mins after administration (arterial blood pressure; 5 min)	variation of the arterial blood pressure, 30 min. after administration (arterial blood pressure; 30 min)	pIC50 (Rat caudal arteries)	change in vivo at 1 mg/kg [1, 5]	change in vivo at 2.5 mg/kg [1, 5]	change in vivo at 5 mg/kg [1, 5]	LD0 (maximum dose not causing any mortality in 8 days) (mice)	change in vivo at 10 mg/kg [1, 4]
CCC(C)(C)NCC(O)COc1ccccc1C(=O)Nc1cccc2[nH]ccc12.O=C(O)c1ccccc1 (centres unmarked) [Example 48, 2-[3-[(1,1-Dimethylpropyl)amino]-2-hydroxypropoxy]-N-(1H-indol-4-yl)benzamide benzoate]	53%	79%	20%	27%								
CC(C)(C)NCC(O)COc1ccccc1C(=O)Nc1cccc2[nH]ccc12 (centres unmarked) [Example 17, 2-[3-[(1,1-dimethylethyl)amino]-2-hydroxypropoxy]-N-(1H-indol-4-yl) benzamide benzoate]					-55 percentage	-13 percentage						
CCC(C)(C)NCC(O)COc1ccccc1C(=O)Nc1cccc2[nH]ccc12 (centres unmarked) [Example 28, 2-[3-[(1,1-dimethylpropyl)amino]-2-hydroxypropoxy]-N-(1H-indol-4-yl) benzamide]			28%	15%			5.60	14%	54%	95%	> 400 mg/kg	
Cn1ccc2c(NC(=O)c3ccccc3OCC(O)CNC(C)(C)C)cccc21 (centres unmarked) [Example 34, 2-[3-[1,1-Dimethylethylamino]-2-hydroxypropoxy]-N-(1-methyl-1H-indol-4-yl) benzamide]	12%	43%	44%	81%			5.06				80 mg/kg	125%

From patent publication US5084455A, “Novel indole carboxamides” (Roussel Uclaf, priority 1985, dated 1992)
